# What was measured:
# [1] = Toxicokinetics of infigratinib in juvenile rat plasma after oral gavage; assay type: in vivo, Crl:WI(Han) rat; settings: Crl:WI(Han), rat, plasma, po
# [2] = test system: constitutive FGFR3 signaling; settings: mouse model of achondroplasia; cited from earlier work
# [3] = female, 0.1 mg/kg/day, Female rats, 0.1 mg/kg/day oral, PND 23
# [4] = female, 0.1 mg/kg/day, Female rats, 0.1 mg/kg/day oral, PND 35
# [5] = female, 0.1 mg/kg/day, Female rats, 0.1 mg/kg/day oral, PND 7
# [6] = female, 0.1 mg/kg/day, Female rats, 0.1 mg/kg/day oral, PND 12
# [7] = female, 0.3 mg/kg/day, Female rats, 0.3 mg/kg/day oral, PND 7
# [8] = female, 0.3 mg/kg/day, Female rats, 0.3 mg/kg/day oral, PND 12
# [9] = female, 0.3 mg/kg/day, Female rats, 0.3 mg/kg/day oral, PND 23
# [10] = female, 0.3 mg/kg/day, Female rats, 0.3 mg/kg/day oral, PND 35
# [11] = female, 1 mg/kg/day, Female rats, 1.0 mg/kg/day oral, PND 7
# [12] = female, 1 mg/kg/day, Female rats, 1.0 mg/kg/day oral, PND 12
# [13] = female, 1 mg/kg/day, Female rats, 1.0 mg/kg/day oral, PND 23
# [14] = female, 1 mg/kg/day, Female rats, 1.0 mg/kg/day oral, PND 35
# [15] = male, 0.1 mg/kg/day, Male rats, 0.1 mg/kg/day oral, PND 7
# [16] = male, 0.1 mg/kg/day, Male rats, 0.1 mg/kg/day oral, PND 12
# [17] = male, 0.1 mg/kg/day, Male rats, 0.1 mg/kg/day oral, PND 23
# [18] = male, 0.1 mg/kg/day, Male rats, 0.1 mg/kg/day oral, PND 35
# [19] = male, 0.3 mg/kg/day, Male rats, 0.3 mg/kg/day oral, PND 7
# [20] = male, 0.3 mg/kg/day, Male rats, 0.3 mg/kg/day oral, PND 12
# [21] = male, 0.3 mg/kg/day, Male rats, 0.3 mg/kg/day oral, PND 23
# [22] = male, 0.3 mg/kg/day, Male rats, 0.3 mg/kg/day oral, PND 35
# [23] = male, 1 mg/kg/day, Male rats, 1.0 mg/kg/day oral, PND 7
# [24] = male, 1 mg/kg/day, Male rats, 1.0 mg/kg/day oral, PND 12
# [25] = male, 1 mg/kg/day, Male rats, 1.0 mg/kg/day oral, PND 23
# [26] = male, 1 mg/kg/day, Male rats, 1.0 mg/kg/day oral, PND 35
compound,measurement,setting,value
"CCN1CCN(c2ccc(Nc3cc(N(C)C(=O)Nc4c(Cl)c(OC)cc(OC)c4Cl)ncn3)cc2)CC1 [infigratinib, 3-(2,6-Dichloro-3,5-dimethoxy-phenyl)-1-{6-[4-(4-ethyl-piperazin-1-yl)-phenylamino]-pyrimidin-4-yl}-1-methyl-urea]",AUC(0-t),[1]; [3],4.66 ng·h/mL
same,AUC(0-t),[1]; [4],1.4 ng·h/mL
same,Cmax,[1]; [5],4.18 ng/mL
same,Cmax,[1]; [6],3.4 ng/mL
same,Cmax,[1]; [3],0.78 ng/mL
same,Cmax,[1]; [4],0.3 ng/mL
same,half-life,"[1]; female, 0.1 mg/kg/day, T1/2, Female rats, 0.1 mg/kg/day oral, PND 7",4.7 h
same,half-life,"[1]; female, 0.1 mg/kg/day, T1/2, Female rats, 0.1 mg/kg/day oral, PND 12",5.66 h
same,Tmax,[1]; [5],3 h
same,Tmax,[1]; [6],3 h
same,Tmax,[1]; [3],3 h
same,Tmax,[1]; [4],1 h
same,AUC(0-t),[1]; [7],183 ng·h/mL
same,AUC(0-t),[1]; [8],137 ng·h/mL
same,AUC(0-t),[1]; [9],18.8 ng·h/mL
same,AUC(0-t),[1]; [10],4.54 ng·h/mL
same,Cmax,[1]; [7],19.4 ng/mL
same,Cmax,[1]; [8],14.9 ng/mL
same,Cmax,[1]; [9],2.25 ng/mL
same,Cmax,[1]; [10],0.66 ng/mL
same,half-life,"[1]; female, 0.3 mg/kg/day, T1/2, Female rats, 0.3 mg/kg/day oral, PND 7",4.26 h
same,half-life,"[1]; female, 0.3 mg/kg/day, T1/2, Female rats, 0.3 mg/kg/day oral, PND 12",3.82 h
same,half-life,"[1]; female, 0.3 mg/kg/day, T1/2, Female rats, 0.3 mg/kg/day oral, PND 23",4.53 h
same,Tmax,[1]; [7],3 h
same,Tmax,[1]; [8],3 h
same,Tmax,[1]; [9],3 h
same,Tmax,[1]; [10],3 h
same,AUC(0-t),[1]; [11],516 ng·h/mL
same,AUC(0-t),[1]; [12],593 ng·h/mL
same,AUC(0-t),[1]; [13],73 ng·h/mL
same,Cmax,[1]; [11],53.2 ng/mL
same,Cmax,[1]; [12],56.6 ng/mL
same,Cmax,[1]; [13],10.4 ng/mL
same,Cmax,[1]; [14],4.04 ng/mL
same,half-life,"[1]; female, 1 mg/kg/day, T1/2, Female rats, 1.0 mg/kg/day oral, PND 7",5.23 h
same,half-life,"[1]; female, 1 mg/kg/day, T1/2, Female rats, 1.0 mg/kg/day oral, PND 12",3.97 h
same,half-life,"[1]; female, 1 mg/kg/day, T1/2, Female rats, 1.0 mg/kg/day oral, PND 23",3.25 h
same,half-life,"[1]; female, 1 mg/kg/day, T1/2, Female rats, 1.0 mg/kg/day oral, PND 35",2.51 h
same,Tmax,[1]; [11],3 h
same,Tmax,[1]; [12],1 h
same,Tmax,[1]; [13],1 h
same,Tmax,[1]; [14],1 h
same,AUC(0-t),[1]; [15],31.9 ng·h/mL
same,AUC(0-t),[1]; [16],39.4 ng·h/mL
same,AUC(0-t),[1]; [17],3.81 ng·h/mL
same,AUC(0-t),[1]; [18],1.95 ng·h/mL
same,Cmax,[1]; [15],3.21 ng/mL
same,Cmax,[1]; [16],3.32 ng/mL
same,Cmax,[1]; [17],0.577 ng/mL
same,Cmax,[1]; [18],0.307 ng/mL
same,half-life,"[1]; male, 0.1 mg/kg/day, T1/2, Male rats, 0.1 mg/kg/day oral, PND 7",5.1 h
same,half-life,"[1]; male, 0.1 mg/kg/day, T1/2, Male rats, 0.1 mg/kg/day oral, PND 12",6.34 h
same,half-life,"[1]; male, 0.1 mg/kg/day, T1/2, Male rats, 0.1 mg/kg/day oral, PND 35",2.2 h
same,Tmax,[1]; [15],3 h
same,Tmax,[1]; [16],3 h
same,Tmax,[1]; [17],3 h
same,Tmax,[1]; [18],1 h
same,AUC(0-t),[1]; [19],114 ng·h/mL
same,AUC(0-t),[1]; [20],149 ng·h/mL
same,AUC(0-t),[1]; [21],21.5 ng·h/mL
same,AUC(0-t),[1]; [22],6 ng·h/mL
same,Cmax,[1]; [19],11.6 ng/mL
same,Cmax,[1]; [20],14.1 ng/mL
same,Cmax,[1]; [21],2.13 ng/mL
same,Cmax,[1]; [22],0.924 ng/mL
same,half-life,"[1]; male, 0.3 mg/kg/day, T1/2, Male rats, 0.3 mg/kg/day oral, PND 7",5.58 h
same,half-life,"[1]; male, 0.3 mg/kg/day, T1/2, Male rats, 0.3 mg/kg/day oral, PND 12",3.75 h
same,half-life,"[1]; male, 0.3 mg/kg/day, T1/2, Male rats, 0.3 mg/kg/day oral, PND 23",4.37 h
same,Tmax,[1]; [19],3 h
same,Tmax,[1]; [20],3 h
same,Tmax,[1]; [21],3 h
same,Tmax,[1]; [22],3 h
same,AUC(0-t),[1]; [23],375 ng·h/mL
same,AUC(0-t),[1]; [24],596 ng·h/mL
same,AUC(0-t),[1]; [25],87.2 ng·h/mL
same,AUC(0-t),[1]; [26],24.3 ng·h/mL
same,Cmax,[1]; [23],37.3 ng/mL
same,Cmax,[1]; [24],68.8 ng/mL
same,Cmax,[1]; [25],11.2 ng/mL
same,Cmax,[1]; [26],2.98 ng/mL
same,half-life,"[1]; male, 1 mg/kg/day, T1/2, Male rats, 1.0 mg/kg/day oral, PND 12",3.33 h
same,half-life,"[1]; male, 1 mg/kg/day, T1/2, Male rats, 1.0 mg/kg/day oral, PND 23",3.64 h
same,Tmax,[1]; [23],7 h
same,Tmax,[1]; [24],3 h
same,Tmax,[1]; [25],3 h
same,Tmax,[1]; [26],3 h
same,Effect on limb length and calvarial defects,[2],increase limb length and improve calvarial defects

# Source: PMC10784415 (Developmental dynamics : an official publication of the …, 2023)
